Columns and labels:
[1] = system: TGF-β-stimulated SMAD3 phosphorylation in BEAS-2B cells; experiment: Cellular ALK5 potency assay, inhibition of TGF-β stimulated pSMAD3 formation in BEAS-2B cells; assay type: cell-based; details: Homo sapiens; inhibition of TGF-β stimulated pSMAD3 formation, BEAS-2B cells; read-out: BEAS2B pIC50 (converted)
How it was run: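 BEAS-2B human lung epithelial cells, seeded overnight, were pre-treated with compound in HBSS/25 mM HEPES/1% BSA for 1 h at 37 °C, then stimulated with TGF-β (final 10 ng/mL) for 30 min. Lysates were assayed for pSMAD3 by AlphaLISA; pIC50 came from dose-dependent signal change versus TGF-β-stimulated untreated cells.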

[2] = target: T1, recombinant human ALK5 (TGF-βR1) protein (Homo sapiens, UniProt P36897); experiment: Biochemical ALK5 (TGF-βR1) assay to measure pKi (LANCE Ultra ULight kinase assay); details: apparent pKi from pIC50 by Cheng-Prusoff, read-out: ALK5 pKi (converted)
T1 construct: purchased Life Technologies PR9075A
T1 sequence (P36897 34-503): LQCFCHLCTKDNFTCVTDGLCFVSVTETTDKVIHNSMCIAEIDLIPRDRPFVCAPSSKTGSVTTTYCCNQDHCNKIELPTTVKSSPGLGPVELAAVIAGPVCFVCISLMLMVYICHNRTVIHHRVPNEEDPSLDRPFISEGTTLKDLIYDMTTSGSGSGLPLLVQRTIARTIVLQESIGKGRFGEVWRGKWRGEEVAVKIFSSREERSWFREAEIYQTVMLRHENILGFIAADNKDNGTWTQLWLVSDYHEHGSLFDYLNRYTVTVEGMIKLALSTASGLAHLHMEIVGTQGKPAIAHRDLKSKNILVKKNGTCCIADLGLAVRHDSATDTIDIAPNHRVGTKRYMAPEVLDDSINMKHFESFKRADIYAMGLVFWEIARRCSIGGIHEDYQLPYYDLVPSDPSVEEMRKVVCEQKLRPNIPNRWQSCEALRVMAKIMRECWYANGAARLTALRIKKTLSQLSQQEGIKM
How it was run: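 Compounds (10 μM to 25 pM) preincubated 60 minutes at room temperature with enzyme, then reaction run 60 minutes at 37° C with ATP added as 125 μM (5× final). Stopped with EDTA plus Eu-anti-phospho-Topoisomerase 2-alpha (Thr1342) antibody, TR-FRET read at 665 nm; pIC50 converted to pKi via Cheng-Prusoff.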

Ki [2] [nM] | SMILES | IC50 [1] [nM]
0.0398 to 0.316 | Cc1cccc(-c2nc3ccccn3c2-c2ccc3ncc(-c4cnc5n4CCNC5)cc3n2)n1 [Compound 524, 2-[2-(6-methyl-2-pyridyl)imidazo[1,2-a]pyridin-3-yl]-7-(5,6,7,8-tetrahydroimidazo[1,2-a]pyrazin-3-yl)-1,5-naphthyridine] | 25.1 to 158
< 0.0316 | Cc1cccc(-c2n[nH]cc2-c2ccc3ncc(-c4cnn5c4NCCC5)cc3n2)n1 [Compound 525, 2-[3-(6-methyl-2-pyridyl)-1H-pyrazol-4-yl]-7-(4,5,6,7-tetrahydropyrazolo[1,5-a]pyrimidin-3-yl)-1,5-naphthyridine] | < 20
0.0398 to 0.316 | CNCCn1cc(-c2cnc3ccc(-c4c(-c5cccc(C)n5)nc5ccccn45)nc3c2)cn1 [Compound 527, N-methyl-2-(4-(6-(2-(6-methylpyridin-2-yl)imidazo[1,2-a]pyridin-3-yl)-1,5-naphthyridin-3-yl)-1H-pyrazol-1-yl)ethan-1-amine] | 25.1 to 158
< 0.0316 | Cc1cccc(-c2n[nH]cc2-c2ccc3ncc(N4CCNCC4)cc3c2)n1 [Compound 529, 6-[3-(6-methyl-2-pyridyl)-1H-pyrazol-4-yl]-3-piperazin-1-yl-quinoline] | < 20
< 0.0316 | Cc1cccc(-c2[nH]cnc2-c2ccc3ncc(C4=CCCC(N)C4)cc3c2)n1 (centres unmarked) [Compound 531, 3-[6-[5-(6-methyl-2-pyridyl)-1H-imidazol-4-yl]-3-quinolyl]cyclohex-3-en-1-amine] | < 20
0.0398 to 0.316 | Cc1cccc(-c2n[nH]cc2-c2ccc3ncc(N4CC5CNC5C4)cc3c2)n1 (centres unmarked) [Compound 535, 3-(3,6-diazabicyclo[3.2.0]heptan-3-yl)-6-[3-(6-methyl-2-pyridyl)-1H-pyrazol-4-yl]quinoline] | 25.1 to 158
< 0.0316 | Cc1nc(-c2[nH]cnc2-c2ccc3ncc(-c4cn[nH]c4)cc3n2)ccc1F [Compound 536, 2-[5-(5-fluoro-6-methyl-2-pyridyl)-1H-imidazol-4-yl]-7-(1H-pyrazol-4-yl)-1,5-naphthyridine] | < 20
0.398 to 3.16 | Cc1cccc(-c2n[nH]cc2-c2ccc3ncc(-c4cnc5n4CCNC5)cc3c2)n1 [Compound 538, 6-[3-(6-methyl-2-pyridyl)-1H-pyrazol-4-yl]-3-(5,6,7,8-tetrahydroimidazo[1,2-a]pyrazin-3-yl)quinoline] | 25.1 to 158
< 0.0316 | Cc1cccc(-c2[nH]cnc2-c2ccc3ncc(C4=CCC(NC(C)C)CC4)cc3c2)n1 (centres unmarked) [Compound 540, N-isopropyl-4-[6-[5-(6-methyl-2-pyridyl)-1H-imidazol-4-yl]-3-quinolyl]cyclohex-3-en-1-amine] | 25.1 to 158
< 0.0316 | Cc1cccc(-c2[nH]cnc2-c2ccc3ncc(-c4ccc(C(=O)O)nc4)cc3c2)n1 [Compound 541, 5-(6-(5-(6-methylpyridin-2-yl)-1H-imidazol-4-yl)quinolin-3-yl)picolinic Acid] | 1580 to 10000
0.0398 to 0.316 | Cc1cccc(-c2[nH]cnc2-c2ccc3ncc(-c4ccc(C(=O)O[C@H]5CCN(C)C5)cc4)cc3c2)n1 [Compound 545, [(3S)-1-methylpyrrolidin-3-yl] 4-[6-[5-(6-methyl-2-pyridyl)-1H-imidazol-4-yl]-3-quinolyl]benzoate] | 25.1 to 158
0.398 to 3.16 | Cc1cccc(-c2n[nH]cc2-c2ccc3ncc(-c4nc(C(=O)O)co4)cc3n2)n1 [Compound 546, 2-[6-[3-(6-methyl-2-pyridyl)-1H-pyrazol-4-yl]-1,5-naphthyridin-3-yl]oxazole-4-carboxylic acid] | 1580 to 10000
0.0398 to 0.316 | Cc1cccc(-c2n[nH]cc2-c2ccc3ncc(-c4cnc5n4CCNC5)cc3n2)n1 [Compound 548, 2-[3-(6-methyl-2-pyridyl)-1H-pyrazol-4-yl]-7-(5,6,7,8-tetrahydroimidazo[1,2-a]pyrazin-3-yl)-1,5-naphthyridine] | 25.1 to 158
< 0.0316 | Cc1cccc(-c2n[nH]cc2-c2ccc3ncc(-c4ccc(C5CCCN(C)C5)cc4)cc3n2)n1 (centres unmarked) [Compound 552, 7-[4-(1-methyl-3-piperidyl)phenyl]-2-[3-(6-methyl-2-pyridyl)-1H-pyrazol-4-yl]-1,5-naphthyridine] | 200 to 1260
3.98 to 31.6 | Cc1cccc(-c2[nH]ncc2-c2ccc3ncc(C(=O)O)cc3n2)n1 [Compound 553, 6-[5-(6-methyl-2-pyridyl)-1H-pyrazol-4-yl]-1,5-naphthyridine-3-carboxylic acid] | 1580 to 10000

More lines, now with the values behind:

SMILES | Ki [2] [nM] | IC50 [1] [nM]
Cc1nc(-c2n[nH]cc2-c2ccc3ncc(NCCN4CCCC4(C)C)cc3n2)ccc1F [Compound 526, N-(2-(2,2-dimethylpyrrolidin-1-yl)ethyl)-6-(3-(5-fluoro-6-methylpyridin-2-yl)-1H-pyrazol-4-yl)-1,5-naphthyridin-3-amine] | < 0.0316 | 25.1 to 158
Cc1cccc(-c2n[nH]cc2-c2ccc3ncc(N4CCN(C5(C(N)=O)CCCC5)CC4)cc3n2)n1 [Compound 528, 1-[4-[6-[3-(6-methyl-2-pyridyl)-1H-pyrazol-4-yl]-1,5-naphthyridin-3-yl]piperazin-1-yl]cyclopentanecarboxamide] | 0.398 to 3.16 | 200 to 1260
Cc1cccc(-c2n[nH]cc2-c2ccc3ncc(NC(=O)CCN4CCN(C(C)C)CC4)cc3n2)n1 [Compound 530, 3-(4-isopropylpiperazin-1-yl)-N-[6-[3-(6-methyl-2-pyridyl)-1H-pyrazol-4-yl]-1,5-naphthyridin-3-yl]propanamide] | 0.0398 to 0.316 | 25.1 to 158
CCc1cccc(-c2n[nH]cc2-c2ccc3ncc(N4CCC(N5CCCC5)CC4)cc3n2)n1 [Compound 532, 2-(3-(6-ethylpyridin-2-yl)-1H-pyrazol-4-yl)-7-(4-(pyrrolidin-1-yl)piperidin-1-yl)-1,5-naphthyridine] | < 0.0316 | 25.1 to 158
Cc1cccc(-c2nnn(Cc3ccccc3)c2-c2ccc3ncc(N4CCC(N5CCN(C)CC5)CC4)cc3c2)n1 [Compound 533, 6-[3-benzyl-5-(6-methyl-2-pyridyl)triazol-4-yl]-3-[4-(4-methylpiperazin-1-yl)-1-piperidyl]quinoline] | 0.0398 to 0.316 | 200 to 1260
Cc1nc(-c2n[nH]cc2-c2ccc3ncc(-c4cnn5c4NCC5)cc3n2)ccc1F [Compound 534, 7-(2,3-dihydro-1H-imidazo[1,2-b]pyrazol-7-yl)-2-[3-(5-fluoro-6-methyl-2-pyridyl)-1H-pyrazol-4-yl]-1,5-naphthyridine] | < 0.0316 | < 20
Cc1nc(-c2n[nH]cc2-c2ccc3ncc(N4CCC(N5CCN(C)CC5)CC4)cc3n2)ccc1F [Compound 539, 2-[3-(5-fluoro-6-methyl-2-pyridyl)-1H-pyrazol-4-yl]-7-[4-(4-methylpiperazin-1-yl)-1-piperidyl]-1,5-naphthyridine] | < 0.0316 | 25.1 to 158
Cc1cccc(-c2n[nH]cc2-c2ccc3ncc(N4CC[C@@H](N5CCCCC5)C4)cc3n2)n1 [Compound 542, 2-[3-(6-methyl-2-pyridyl)-1H-pyrazol-4-yl]-7-[(3R)-3-(1-piperidyl)pyrrolidin-1-yl]-1,5-naphthyridine] | < 0.0316 | 25.1 to 158
Cc1cccc(-c2n[nH]cc2-c2ccc3ncc(NC4CCCNC4)cc3n2)n1 (centres unmarked) [Compound 543, 6-[3-(6-methyl-2-pyridyl)-1H-pyrazol-4-yl]-N-(3-piperidyl)-1,5-naphthyridin-3-amine] | 0.0398 to 0.316 | 25.1 to 158
CNCc1ccnc2ccc(-c3c[nH]nc3-c3cccc(C)n3)cc12 [Compound 549, N-methyl-1-[6-[3-(6-methyl-2-pyridyl)-1H-pyrazol-4-yl]-4-quinolyl]methanamine] | 0.398 to 3.16 | 25.1 to 158
Cc1cccc(-c2n[nH]cc2-c2ccc3ncc(-c4nnn5c4NCCC5)cc3n2)n1 [Compound 550, 2-[3-(6-methyl-2-pyridyl)-1H-pyrazol-4-yl]-7-(4,5,6,7-tetrahydrotriazolo[1,5-a]pyrimidin-3-yl)-1,5-naphthyridine] | 0.0398 to 0.316 | 25.1 to 158
Cc1nc(-c2n[nH]cc2-c2ccc3ncc(-c4cnn(C[C@H]5CC[C@H](N)CC5)c4)cc3n2)ccc1F [Compound 551, 4-[[4-[6-[3-(5-fluoro-6-methyl-2-pyridyl)-1H-pyrazol-4-yl]-1,5-naphthyridin-3-yl]pyrazol-1-yl]methyl]cyclohexanamine] | < 0.0316 | 25.1 to 158
CNCCn1cc(-c2cnc3ccc(-c4c[nH]nc4-c4cccc(C)n4)nc3c2)nn1 [Compound 554, N-methyl-2-[4-[6-[3-(6-methyl-2-pyridyl)-1H-pyrazol-4-yl]-1,5-naphthyridin-3-yl]triazol-1-yl]ethanamine] | < 0.0316 | 25.1 to 158

— patent US11590116B2 (THERAVANCE BIOPHARMA R&D IP, LLC, priority 2019, dated 2023)
